Reference: patent publication US20260356819A1, “OXOISOINDOLINYL-SUBSTITUTED […] DERIVATIVE AND USE THEREOF” (GLUETACS THERAPEUTICS (SHANGHAI) CO., LTD., priority 2023, published 2026)

Tests used:
Format in all cases: cell-based
Conditions in all cases: compounds at 50 nM and 500 nM
IKZF3 = target: T1, IKZF3 (Homo sapiens, UniProt Q96SW2+Q9UKT9); assay: Western blot degradation of IKZF3 in hPBMCs (24 h)
T1 construct: The supernatant was aspirated as the extracted total cell protein; endogenous in cells; host or cells: human peripheral blood mononuclear cells (hPBMCs)
T1 sequence (Q9UKT9 whole entry): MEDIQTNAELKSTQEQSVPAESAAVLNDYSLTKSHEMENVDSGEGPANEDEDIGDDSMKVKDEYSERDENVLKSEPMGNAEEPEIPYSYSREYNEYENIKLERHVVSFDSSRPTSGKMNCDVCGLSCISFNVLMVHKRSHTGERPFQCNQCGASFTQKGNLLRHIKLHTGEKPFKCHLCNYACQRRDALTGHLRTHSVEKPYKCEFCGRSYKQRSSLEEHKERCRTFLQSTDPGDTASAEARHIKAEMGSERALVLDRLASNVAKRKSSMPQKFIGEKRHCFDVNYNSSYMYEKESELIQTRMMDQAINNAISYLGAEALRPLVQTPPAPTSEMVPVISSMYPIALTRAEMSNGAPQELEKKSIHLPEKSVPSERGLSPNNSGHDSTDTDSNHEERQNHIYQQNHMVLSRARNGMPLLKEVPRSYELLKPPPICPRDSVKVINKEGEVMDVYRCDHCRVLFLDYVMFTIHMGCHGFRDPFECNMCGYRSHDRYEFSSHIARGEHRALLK
T1 sequence (Q96SW2 whole entry): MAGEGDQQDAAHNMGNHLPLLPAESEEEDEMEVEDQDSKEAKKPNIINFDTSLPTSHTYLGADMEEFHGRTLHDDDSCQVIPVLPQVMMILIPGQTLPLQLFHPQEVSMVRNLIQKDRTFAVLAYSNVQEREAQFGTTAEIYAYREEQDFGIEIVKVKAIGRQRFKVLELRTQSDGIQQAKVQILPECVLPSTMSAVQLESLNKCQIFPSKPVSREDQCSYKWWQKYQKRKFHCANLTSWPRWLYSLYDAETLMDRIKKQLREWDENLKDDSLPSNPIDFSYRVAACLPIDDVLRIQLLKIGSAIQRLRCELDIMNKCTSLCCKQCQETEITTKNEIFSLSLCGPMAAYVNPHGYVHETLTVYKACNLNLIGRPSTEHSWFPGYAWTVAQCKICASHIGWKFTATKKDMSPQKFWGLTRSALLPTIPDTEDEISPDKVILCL
T1 sequence (Q16531 whole entry partner): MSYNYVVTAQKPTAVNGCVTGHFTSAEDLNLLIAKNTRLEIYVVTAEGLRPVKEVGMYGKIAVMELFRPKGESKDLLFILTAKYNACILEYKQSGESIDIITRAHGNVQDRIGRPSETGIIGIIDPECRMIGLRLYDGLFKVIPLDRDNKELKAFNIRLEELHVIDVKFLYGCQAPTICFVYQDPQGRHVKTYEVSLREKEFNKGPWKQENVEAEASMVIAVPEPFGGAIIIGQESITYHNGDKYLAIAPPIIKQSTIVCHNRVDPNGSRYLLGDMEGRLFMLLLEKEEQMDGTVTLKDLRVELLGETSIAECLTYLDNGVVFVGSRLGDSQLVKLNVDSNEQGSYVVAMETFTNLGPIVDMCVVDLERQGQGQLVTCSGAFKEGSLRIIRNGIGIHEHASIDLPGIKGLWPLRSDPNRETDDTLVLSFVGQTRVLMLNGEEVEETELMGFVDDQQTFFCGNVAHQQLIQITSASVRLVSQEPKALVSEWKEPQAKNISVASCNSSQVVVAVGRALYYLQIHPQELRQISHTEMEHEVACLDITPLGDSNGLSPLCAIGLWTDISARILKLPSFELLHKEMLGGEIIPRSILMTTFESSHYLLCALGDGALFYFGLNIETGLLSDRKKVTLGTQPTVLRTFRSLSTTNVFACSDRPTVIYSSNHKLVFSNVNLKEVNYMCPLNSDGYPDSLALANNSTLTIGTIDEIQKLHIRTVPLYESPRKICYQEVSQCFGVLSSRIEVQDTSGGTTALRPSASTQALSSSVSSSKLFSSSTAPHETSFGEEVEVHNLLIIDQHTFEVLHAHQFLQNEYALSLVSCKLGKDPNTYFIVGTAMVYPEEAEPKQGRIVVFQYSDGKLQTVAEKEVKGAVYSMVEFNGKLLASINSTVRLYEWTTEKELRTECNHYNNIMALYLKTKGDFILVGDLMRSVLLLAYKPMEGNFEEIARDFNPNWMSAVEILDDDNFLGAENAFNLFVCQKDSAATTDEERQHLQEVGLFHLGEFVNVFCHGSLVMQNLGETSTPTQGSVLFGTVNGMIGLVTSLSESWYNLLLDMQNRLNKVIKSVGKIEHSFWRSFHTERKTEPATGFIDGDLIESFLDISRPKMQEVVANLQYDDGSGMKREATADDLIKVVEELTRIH
In short: (§1)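 Western blot densitometry after 24 h treatment of human PBMCs (1×10^6 cells/mL) with 50 nM or 500 nM compound. Remaining target (%) = band intensity over internal-control band, normalized to DMSO; degradation = 1 − remaining; DC50 is the concentration giving half the DMSO band signal.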

IKZF1 = target: T2, IKZF1 (Homo sapiens, UniProt Q13422+Q96SW2); assay: Western blot degradation of IKZF1 in hPBMCs (24 h)
T2 construct: The supernatant was aspirated as the extracted total cell protein; endogenous in cells; host or cells: human peripheral blood mononuclear cells (hPBMCs)
T2 sequence (Q13422 whole entry): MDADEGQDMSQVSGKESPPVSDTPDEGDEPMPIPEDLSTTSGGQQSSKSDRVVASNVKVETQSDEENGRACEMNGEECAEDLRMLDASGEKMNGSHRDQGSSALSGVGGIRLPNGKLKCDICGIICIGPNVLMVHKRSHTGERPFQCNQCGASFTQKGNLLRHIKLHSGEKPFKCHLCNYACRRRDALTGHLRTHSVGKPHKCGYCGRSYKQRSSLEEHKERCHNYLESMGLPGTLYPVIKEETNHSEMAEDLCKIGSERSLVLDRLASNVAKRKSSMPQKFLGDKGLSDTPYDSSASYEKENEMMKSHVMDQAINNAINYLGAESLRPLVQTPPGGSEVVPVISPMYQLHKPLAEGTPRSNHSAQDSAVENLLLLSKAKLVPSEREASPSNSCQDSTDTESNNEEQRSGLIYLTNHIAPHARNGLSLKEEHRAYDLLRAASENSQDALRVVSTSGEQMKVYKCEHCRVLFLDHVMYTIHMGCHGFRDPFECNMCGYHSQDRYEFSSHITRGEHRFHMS
T2 sequence (Q96SW2 whole entry): as the sequence (Q96SW2 whole entry) above
T2 sequence (Q16531 whole entry partner): as the sequence (Q16531 whole entry partner) above
In short: as §1

WEE1 = target: T3, WEE1 (Homo sapiens, UniProt P30291+Q96SW2); assay: Western blot degradation of WEE1 in hPBMCs (24 h)
T3 construct: The supernatant was aspirated as the extracted total cell protein; endogenous in cells; host or cells: human peripheral blood mononuclear cells (hPBMCs)
T3 sequence (P30291 whole entry): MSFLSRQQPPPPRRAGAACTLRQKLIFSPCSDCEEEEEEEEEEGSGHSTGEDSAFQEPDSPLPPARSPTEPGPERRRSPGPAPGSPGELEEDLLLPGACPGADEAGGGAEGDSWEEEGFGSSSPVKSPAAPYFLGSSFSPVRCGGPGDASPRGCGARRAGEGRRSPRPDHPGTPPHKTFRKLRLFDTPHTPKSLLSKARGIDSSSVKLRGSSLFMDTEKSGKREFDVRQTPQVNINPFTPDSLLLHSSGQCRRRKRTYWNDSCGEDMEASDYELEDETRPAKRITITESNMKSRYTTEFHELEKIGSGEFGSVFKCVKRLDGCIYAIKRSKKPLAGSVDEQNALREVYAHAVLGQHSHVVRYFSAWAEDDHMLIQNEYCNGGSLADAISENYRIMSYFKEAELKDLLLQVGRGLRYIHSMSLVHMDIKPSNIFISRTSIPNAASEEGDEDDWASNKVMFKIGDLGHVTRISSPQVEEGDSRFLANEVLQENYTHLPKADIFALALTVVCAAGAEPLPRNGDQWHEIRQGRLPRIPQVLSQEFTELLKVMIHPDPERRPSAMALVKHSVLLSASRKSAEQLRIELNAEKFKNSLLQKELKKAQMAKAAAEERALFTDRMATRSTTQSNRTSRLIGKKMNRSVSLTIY
T3 sequence (Q96SW2 whole entry): as the sequence (Q96SW2 whole entry) above
T3 sequence (Q16531 whole entry partner): as the sequence (Q16531 whole entry partner) above
In short: as §1

CK1α = target: T4, CK1α (Homo sapiens, UniProt P48729+Q96SW2); assay: Western blot degradation of CK1α in hPBMCs (24 h)
T4 construct: The supernatant was aspirated as the extracted total cell protein; endogenous in cells; host or cells: human peripheral blood mononuclear cells (hPBMCs)
T4 sequence (P48729 whole entry): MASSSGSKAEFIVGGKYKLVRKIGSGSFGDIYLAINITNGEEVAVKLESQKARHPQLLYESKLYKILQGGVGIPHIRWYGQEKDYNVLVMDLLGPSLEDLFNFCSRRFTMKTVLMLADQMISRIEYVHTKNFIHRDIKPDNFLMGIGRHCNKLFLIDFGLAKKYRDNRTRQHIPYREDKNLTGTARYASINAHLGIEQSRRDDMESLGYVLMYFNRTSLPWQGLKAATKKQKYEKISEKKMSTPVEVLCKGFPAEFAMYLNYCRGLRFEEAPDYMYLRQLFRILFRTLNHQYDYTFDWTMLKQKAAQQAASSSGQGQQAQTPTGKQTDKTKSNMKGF
T4 sequence (Q96SW2 whole entry): as the sequence (Q96SW2 whole entry) above
T4 sequence (Q16531 whole entry partner): as the sequence (Q16531 whole entry partner) above
In short: as §1

IKZF2 = target: T5, IKZF2 (Homo sapiens, UniProt Q96SW2+Q9UKS7); assay: Western blot degradation of IKZF2 in hPBMCs (24 h)
T5 construct: The supernatant was aspirated as the extracted total cell protein; endogenous in cells; host or cells: human peripheral blood mononuclear cells (hPBMCs)
T5 sequence (Q9UKS7 whole entry): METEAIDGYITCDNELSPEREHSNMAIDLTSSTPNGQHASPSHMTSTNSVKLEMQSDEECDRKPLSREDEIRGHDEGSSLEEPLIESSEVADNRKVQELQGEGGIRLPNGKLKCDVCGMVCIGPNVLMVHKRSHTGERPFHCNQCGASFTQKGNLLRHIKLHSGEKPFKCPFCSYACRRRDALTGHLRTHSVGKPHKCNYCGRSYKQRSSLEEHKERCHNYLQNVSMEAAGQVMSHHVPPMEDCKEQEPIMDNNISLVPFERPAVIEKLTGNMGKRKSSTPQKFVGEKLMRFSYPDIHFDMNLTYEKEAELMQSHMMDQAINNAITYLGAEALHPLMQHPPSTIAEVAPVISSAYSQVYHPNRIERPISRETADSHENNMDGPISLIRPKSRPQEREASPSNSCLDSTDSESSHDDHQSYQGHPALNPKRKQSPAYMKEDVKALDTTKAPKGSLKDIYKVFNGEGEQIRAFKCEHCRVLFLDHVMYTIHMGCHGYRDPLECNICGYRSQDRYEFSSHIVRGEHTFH
T5 sequence (Q96SW2 whole entry): as the sequence (Q96SW2 whole entry) above
T5 sequence (Q16531 whole entry partner): as the sequence (Q16531 whole entry partner) above
In short: as §1

GSPT1 = target: T6, GSPT1 (Homo sapiens, UniProt P15170+Q96SW2); assay: Western blot degradation of GSPT1 in hPBMCs (24 h)
T6 construct: The supernatant was aspirated as the extracted total cell protein; endogenous in cells; host or cells: human peripheral blood mononuclear cells (hPBMCs)
In short: as §1

SMILES | IKZF3 substrate protein remaining % (IKZF3) | IKZF1 substrate protein remaining % (IKZF1) | WEE1 substrate protein remaining % (WEE1) | CK1α substrate protein remaining % (CK1α) | IKZF2 substrate protein remaining % (IKZF2) | GSPT1 substrate protein remaining % (GSPT1)
O=C1CCN(N2C(=O)c3ccc(CN4CCC(c5cccc(Cl)c5Cl)CC4)cc3C2=O)C(=O)N1 [GT-05250, 5-((4-(2,3-dichlorophenyl)piperidin-1-yl)methyl)-2-(2,4-dioxotetrahydropyrimidin-1(2H)-yl)isoindoline-1,3-dione] | B (80%< substrate protein remaining % ≤100%) | B (80%< substrate protein remaining % ≤100%) | B (80%< substrate protein remaining % ≤100%) | B (80%< substrate protein remaining % ≤100%) | A (0% ≤ substrate protein remaining % ≤80%) | B (80%< substrate protein remaining % ≤100%)
O=C1CCN(N2C(=O)c3ccc(CN4C5CC4CN(c4cccc(Cl)c4Cl)C5)cc3C2=O)C(=O)N1 [GT-05251, 5-((3-(2,3-dichlorophenyl)-3,6-diazabicyclo[3.1.1]heptan-6-yl)methyl)-2-(2,4-dioxotetrahydropyrimidin-1(2H)-yl)isoindoline-1,3-dione] | B (80%< substrate protein remaining % ≤100%) | B (80%< substrate protein remaining % ≤100%) | B (80%< substrate protein remaining % ≤100%) | B (80%< substrate protein remaining % ≤100%) | A (0% ≤ substrate protein remaining % ≤80%) | B (80%< substrate protein remaining % ≤100%)
O=C1CCN(N2C(=O)c3ccc(CN4CCn5c(nnc5C(F)(F)F)C4)cc3C2=O)C(=O)N1 [GT-05253, 2-(2,4-dioxotetrahydropyrimidin-1(2H)-yl)-5-((3-(trifluoromethyl)-5,6-dihydro-[1,2,4]triazolo[4,3-a]pyrazin-7 (8H)-yl)methyl)isoindoline-1,3-dione] | B (80%< substrate protein remaining % ≤100%) | B (80%< substrate protein remaining % ≤100%) | B (80%< substrate protein remaining % ≤100%) | B (80%< substrate protein remaining % ≤100%) | B (80%< substrate protein remaining % ≤100%) | A (0% ≤ substrate protein remaining % ≤80%)
O=C1CCN(N2C(=O)c3ccc(CN4CCc5sccc5C4)cc3C2=O)C(=O)N1 [GT-05254, 5-((6,7-dihydrothieno[3,2-c]pyridin-5 (4H)-yl)methyl)-2-(2,4-dioxotetrahydropyrimidin-1(2H)-yl)isoindoline-1,3-dione] | B (80%< substrate protein remaining % ≤100%) | B (80%< substrate protein remaining % ≤100%) | B (80%< substrate protein remaining % ≤100%) | B (80%< substrate protein remaining % ≤100%) | B (80%< substrate protein remaining % ≤100%) | A (0% ≤ substrate protein remaining % ≤80%)
O=C1CCN(N2C(=O)c3ccc(CN4CCC(c5c[nH]c6cc(F)ccc56)CC4)cc3C2=O)C(=O)N1 [GT-05259, 2-(2,4-dioxotetrahydropyrimidin-1(2H)-yl)-5-((4-(6-fluoro-1H-indol-3-yl)piperidin-1-yl)methyl)isoindoline-1,3-dione] | B (80%< substrate protein remaining % ≤100%) | A (0% ≤ substrate protein remaining % ≤80%) | B (80%< substrate protein remaining % ≤100%) | B (80%< substrate protein remaining % ≤100%) | A (0% ≤ substrate protein remaining % ≤80%) | A (0% ≤ substrate protein remaining % ≤80%)
O=C1CCN(N2C(=O)c3ccc(CN4CCC(N5CCc6cc(F)ccc65)CC4)cc3C2=O)C(=O)N1 [GT-05260, 2-(2,4-dioxotetrahydropyrimidin-1(2H)-yl)-5-((4-(5-fluoroindolin-1-yl)piperidin-1-yl)methyl)isoindoline-1,3-dione] | B (80%< substrate protein remaining % ≤100%) | A (0% ≤ substrate protein remaining % ≤80%) | A (0% ≤ substrate protein remaining % ≤80%) | B (80%< substrate protein remaining % ≤100%) | A (0% ≤ substrate protein remaining % ≤80%) | B (80%< substrate protein remaining % ≤100%)
O=C1CCN(N2C(=O)c3ccc(CN4CC=C(c5ccnc6cc(F)ccc56)CC4)cc3C2=O)C(=O)N1 [GT-05261, 2-(2,4-dioxotetrahydropyrimidin-1(2H)-yl)-5-((4-(7-fluoroquinolin-4-yl)-3,6-dihydropyridin-1(2H)-yl)methyl)isoindoline-1,3-dione] | B (80%< substrate protein remaining % ≤100%) | B (80%< substrate protein remaining % ≤100%) | B (80%< substrate protein remaining % ≤100%) | B (80%< substrate protein remaining % ≤100%) | A (0% ≤ substrate protein remaining % ≤80%) | B (80%< substrate protein remaining % ≤100%)
O=C1CCN(N2C(=O)c3ccc(CN4CCN(C(c5ccccc5)c5ccccc5)CC4)cc3C2=O)C(=O)N1 [GT-05267, 5-((4-benzhydrylpiperazin-1-yl)methyl)-2-(2,4-dioxotetrahydropyrimidin-1(2H)-yl)isoindoline-1,3-dione] | A (0% ≤ substrate protein remaining % ≤80%) | B (80%< substrate protein remaining % ≤100%) | B (80%< substrate protein remaining % ≤100%) | A (0% ≤ substrate protein remaining % ≤80%) | B (80%< substrate protein remaining % ≤100%) | A (0% ≤ substrate protein remaining % ≤80%)
O=C1CCN(N2C(=O)c3ccc(CN4CCN(C(c5ccc(F)cc5)c5ccc(F)cc5)CC4)cc3C2=O)C(=O)N1 [GT-05268, 5-((4-(bis(4-fluorophenyl)methyl)piperazin-1-yl)methyl)-2-(2,4-dioxotetrahydropyrimidin-1(2H)-yl)isoindoline-1,3-dione] | A (0% ≤ substrate protein remaining % ≤80%) | B (80%< substrate protein remaining % ≤100%) | B (80%< substrate protein remaining % ≤100%) | A (0% ≤ substrate protein remaining % ≤80%) | B (80%< substrate protein remaining % ≤100%) | A (0% ≤ substrate protein remaining % ≤80%)
O=C1CCN(N2C(=O)c3ccc(CN4CCN(C(c5ccc(Cl)cc5)c5ccc(Cl)cc5)CC4)cc3C2=O)C(=O)N1 [GT-05269, 5-((4-(bis(4-chlorophenyl)methyl)piperazin-1-yl)methyl)-2-(2,4-dioxotetrahydropyrimidin-1(2H)-yl)isoindoline-1,3-dione] | B (80%< substrate protein remaining % ≤100%) | B (80%< substrate protein remaining % ≤100%) | B (80%< substrate protein remaining % ≤100%) | A (0% ≤ substrate protein remaining % ≤80%) | B (80%< substrate protein remaining % ≤100%) | A (0% ≤ substrate protein remaining % ≤80%)
Cc1nc(C2CCN(Cc3ccc4c(c3)C(=O)N(N3CCC(=O)NC3=O)C4=O)CC2)c2ccsc2n1 [GT-05272, 2-(2,4-dioxotetrahydropyrimidin-1(2H)-yl)-5-((4-(2-methylthieno[2,3-d]pyrimidin-4-yl)piperidin-1-yl)methyl)isoindoline-1,3-dione] | B (80%< substrate protein remaining % ≤100%) | B (80%< substrate protein remaining % ≤100%) | B (80%< substrate protein remaining % ≤100%) | B (80%< substrate protein remaining % ≤100%) | A (0% ≤ substrate protein remaining % ≤80%) | B (80%< substrate protein remaining % ≤100%)
Cc1sc2ncnc(C3=CCN(Cc4ccc5c(c4)C(=O)N(N4CCC(=O)NC4=O)C5=O)CC3)c2c1C [GT-05273, 5-((4-(5,6-dimethylthieno[2,3-d]pyrimidin-4-yl)-3,6-dihydropyridin-1(2H)-yl)methyl)-2-(2,4-dioxotetrahydropyrimidin-1(2H)-yl)isoindoline-1,3-dione] | B (80%< substrate protein remaining % ≤100%) | B (80%< substrate protein remaining % ≤100%) | B (80%< substrate protein remaining % ≤100%) | B (80%< substrate protein remaining % ≤100%) | A (0% ≤ substrate protein remaining % ≤80%) | B (80%< substrate protein remaining % ≤100%)
